# Assay results published in article PMC8119466, “A screen of FDA-approved drugs identifies inhibitors of protein tyrosine phosphatase 4A3 (PTP4A3 or PRL-3)” (Scientific Reports, 2021).
# Where a name gives a salt, the structure may show the parent alone. Read-outs that look alike come from different tables or passages of the source.
# Legend:
# Type in all cases: biochemical
# recombinant PRL-1 = biological target: T1, recombinant PRL-1 (Homo sapiens, UniProt Q93096); experiment: In vitro phosphatase assay (DiFMUP hydrolysis), PRL-1; note: test concentration or dose not given here
# T1 construct: 6xHis (N, cleaved yes); made in house; host or cells: E. coli One Shot BL21 Star
# T1 sequence (Q93096 1-173): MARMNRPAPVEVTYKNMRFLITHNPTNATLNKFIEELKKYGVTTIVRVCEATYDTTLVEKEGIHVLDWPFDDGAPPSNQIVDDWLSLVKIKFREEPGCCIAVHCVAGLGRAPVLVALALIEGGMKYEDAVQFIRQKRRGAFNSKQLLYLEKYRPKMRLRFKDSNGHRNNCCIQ
# recombinant PRL-2 = biological target: T2, recombinant PRL-2 (Homo sapiens, UniProt Q12974); experiment: In vitro phosphatase assay (DiFMUP hydrolysis), PRL-2;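 note: PRL-2 activity read as DiFMUP hydrolysis after 20 min at room temperature with drug, enzyme first pre-reduced at 4 °C for 20 min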
# T2 construct: 6xHis (N, cleaved yes); made in house; host or cells: E. coli One Shot BL21 Star
# T2 sequence (Q12974 1-167): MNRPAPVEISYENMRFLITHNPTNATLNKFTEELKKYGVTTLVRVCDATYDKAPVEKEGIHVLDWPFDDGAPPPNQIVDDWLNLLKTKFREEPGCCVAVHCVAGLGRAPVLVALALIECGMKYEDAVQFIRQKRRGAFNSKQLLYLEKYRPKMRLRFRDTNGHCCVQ
# recombinant PRL-3 = biological target: T3, recombinant PRL-3 (Homo sapiens, UniProt O75365); experiment: In vitro phosphatase assay (DiFMUP hydrolysis), PRL-3; note: test concentration or dose not given here
# T3 construct: 6xHis (N, cleaved yes); made in house; host or cells: E. coli One Shot BL21 Star
# T3 sequence (O75365 whole entry): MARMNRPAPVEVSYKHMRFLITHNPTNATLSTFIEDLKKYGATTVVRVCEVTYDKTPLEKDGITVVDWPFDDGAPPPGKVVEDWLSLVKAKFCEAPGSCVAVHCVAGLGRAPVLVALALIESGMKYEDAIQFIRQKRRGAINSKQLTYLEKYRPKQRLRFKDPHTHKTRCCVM
# [1] = FDA-approved drug screen, activity compared to DMSO
Compound,% Phosphatase Activity (compared to DMSO) PRL-1 (recombinant PRL-1; [1]) [%],% Phosphatase Activity (compared to DMSO) PRL-2 (recombinant PRL-2; [1]) [%],% Phosphatase Activity (compared to DMSO) PRL-3 (recombinant PRL-3; [1]) [%],% Phosphatase Activity (compared to DMSO) PRL-1 (recombinant PRL-1) [%],% Phosphatase Activity (compared to DMSO) PRL-2 (recombinant PRL-2) [%],% Phosphatase Activity (compared to DMSO) PRL-3 (recombinant PRL-3) [%]
Cn1nnc(-c2ccc(-c3ccc(N4C[C@H](COP(=O)(O)O)OC4=O)cc3F)cn2)n1 [Tedizolid Phosphate],97,97,87,–,–,–
CCC[C@H](NC(=O)[C@@H]1[C@H]2CCC[C@H]2CN1C(=O)[C@@H](NC(=O)[C@@H](NC(=O)c1cnccn1)C1CCCCC1)C(C)(C)C)C(=O)C(=O)NC1CC1 [Telaprevir (VX-950)],95,104,92,–,–,–
Cc1cn([C@@H]2C[C@@H](O)[C@H](CO)O2)c(=O)[nH]c1=O [Telbivudine],106,89,80,–,–,–
CCCc1nc2c(C)cc(-c3nc4ccccc4n3C)cc2n1Cc1ccc(-c2ccccc2C(=O)O)cc1 [Telmisartan],86,77,92,–,–,–
CCOC(=O)[C@@H](N)Cc1ccc(-c2cc(O[C@H](c3ccc(Cl)cc3-n3ccc(C)n3)C(F)(F)F)nc(N)n2)cc1.O=C(O)CNC(=O)c1ccccc1 [Telotristat Etiprate (LX 1606 Hippurate)],106,108,97,–,–,–
CCOC(=O)[C@H](CCc1ccccc1)N[C@H]1CS[C@H](c2cccs2)CN(CC(=O)O)C1=O [Temocapril HCl],91,93,73,–,–,–
Cn1nnc2c(C(N)=O)ncn2c1=O [Temozolomide],87,94,65,–,–,–
"CO[C@H]1C[C@@H]2CC[C@@H](C)[C@@](O)(O2)C(=O)C(=O)N2CCCC[C@H]2C(=O)O[C@H]([C@H](C)C[C@@H]2CC[C@@H](OC(=O)C(C)(CO)CO)[C@H](OC)C2)CC(=O)[C@H](C)/C=C(\C)[C@@H](O)[C@@H](OC)C(=O)[C@H](C)C[C@H](C)/C=C/C=C/C=C/1C [Temsirolimus (CCI-779, NSC 683864)]",96,111,91,–,–,–
COc1cc([C@@H]2c3cc4c(cc3[C@@H](O[C@@H]3O[C@@H]5CO[C@@H](c6cccs6)O[C@H]5[C@H](O)[C@H]3O)[C@H]3COC(=O)[C@H]23)OCO4)cc(OC)c1O [Teniposide],95,98,97,–,–,–
CC(C)OC(=O)[C@H](C)N[P@](=O)(CO[C@H](C)Cn1cnc2c(N)ncnc21)Oc1ccccc1 [Tenofovir Alafenamide (GS-7340)],–,–,–,94,74,91
CC(C)OC(=O)OCOP(=O)(CO[C@H](C)Cn1cnc2c(N)ncnc21)OCOC(=O)OC(C)C [Tenofovir Disoproxil Fumarate],95,93,82,–,–,–
C[C@H](Cn1cnc2c(N)ncnc21)OCP(=O)(O)O [Tenofovir],103,120,100,–,–,–
CN1C(C(=O)Nc2ccccn2)=C(O)c2sccc2S1(=O)=O [Tenoxicam],92,75,71,–,–,–
COc1cc2nc(N3CCN(C(=O)C4CCCO4)CC3)nc(N)c2cc1OC (stereo not drawn) [Terazosin HCl],510,644,324,–,–,–
COc1cc2nc(N3CCN(C(=O)C4CCCO4)CC3)nc(N)c2cc1OC (stereo not drawn) [Terazosin],595,423,448,–,–,–
CN(C/C=C/C#CC(C)(C)C)Cc1cccc2ccccc12 [Terbinafine HCl],100,108,86,–,–,–
CC(C)(C)NCC(O)c1cc(O)cc(O)c1 (stereo not drawn) [Terbutaline Sulfate],95,97,101,–,–,–
CC(C)(C)c1ccc(C(O)CCCN2CCC(C(O)(c3ccccc3)c3ccccc3)CC2)cc1 (stereo not drawn) [Terfenadine],96,100,91,–,–,–
C/C(O)=C(\C#N)C(=O)Nc1ccc(C(F)(F)F)cc1 [Teriflunomide],95,98,84,–,–,–

Compound,% Phosphatase Activity (compared to DMSO) PRL-1 (recombinant PRL-1; [1]) [%],% Phosphatase Activity (compared to DMSO) PRL-2 (recombinant PRL-2; [1]) [%],% Phosphatase Activity (compared to DMSO) PRL-3 (recombinant PRL-3; [1]) [%],% Phosphatase Activity (compared to DMSO) PRL-1 (recombinant PRL-1) [%],% Phosphatase Activity (compared to DMSO) PRL-2 (recombinant PRL-2) [%],% Phosphatase Activity (compared to DMSO) PRL-3 (recombinant PRL-3) [%]
CC1(O)CCC(C(C)(C)O)CC1.O (stereo not drawn) [Terpin (hydrate)],88,92,80,–,–,–
COc1cc2c(cc1OC)C1CC(=O)C(CC(C)C)CN1CC2 (stereo not drawn) [Tetrabenazine (Xenazine)],81,89,84,–,–,–
CCCCNc1ccc(C(=O)OCCN(C)C)cc1 [Tetracaine HCl],99,116,88,–,–,–
CN(C)[C@@H]1C(O)=C(C(N)=O)C(=O)[C@@]2(O)C(O)=C3C(=O)c4c(O)cccc4[C@@](C)(O)[C@H]3C[C@@H]12 [Tetracycline HCl],99,86,61,–,–,–
Cl.c1ccc2c(c1)CCCC2C1=NCCN1 (stereo not drawn) [Tetrahydrozoline HCl],111,109,58,–,–,–
Cl.c1ccc(C2CN3CCSC3=N2)cc1 (stereo not drawn) [Tetramisole HCl],–,–,–,97,83,102
O=C1CCC(N2C(=O)c3ccccc3C2=O)C(=O)N1 (stereo not drawn) [Thalidomide],97,91,79,–,–,–
Cn1c(=O)c2[nH]cnc2n(C)c1=O [Theophylline],105,98,84,–,–,–
c1ccc2[nH]c(-c3cscn3)nc2c1 [Thiabendazole],99,99,119,–,–,–
CS(=O)(=O)c1ccc([C@@H](O)[C@@H](CO)NC(=O)C(Cl)Cl)cc1 [Thiamphenicol],103,125,81,–,–,–
CSc1ccc2c(c1)N(CCC1CCCCN1C)c1ccccc1S2 (stereo not drawn) [Thioridazine HCl],–,–,–,95,104,97
Cc1ccsc1C(=CCCN1CCC[C@@H](C(=O)O)C1)c1sccc1C [Tiagabine hydrochloride],100,97,83,–,–,–
Cc1ccsc1C(=CCCN1CCC[C@@H](C(=O)O)C1)c1sccc1C [Tiagabine],100,104,78,–,–,–
CCCSc1nc(N[C@@H]2C[C@H]2c2ccc(F)c(F)c2)c2nnn([C@@H]3C[C@H](OCCO)[C@@H](O)[C@H]3O)c2n1 [Ticagrelor],97,94,85,–,–,–
O=c1sn(-c2cccc3ccccc23)c(=O)n1Cc1ccccc1 [Tideglusib],107,120,98,–,–,–
CN(C)c1cc(NC(=O)CNC(C)(C)C)c(O)c2c1C[C@H]1C[C@H]3[C@H](N(C)C)C(O)=C(C(N)=O)C(=O)[C@@]3(O)C(O)=C1C2=O [Tigecycline],36,45,24,–,–,–
CC[C@H]1OC(=O)C[C@@H](O)[C@H](C)[C@@H](O[C@@H]2O[C@H](C)[C@@H](O)[C@H](N(C)C)[C@H]2O)[C@@H](CCN2C[C@H](C)C[C@H](C)C2)C[C@@H](C)C(=O)/C=C/C(C)=C/[C@@H]1CO[C@@H]1O[C@H](C)[C@@H](O)[C@@H](OC)[C@H]1OC [Tilmicosin],89,88,71,–,–,–
CC(C)(C)NC[C@H](O)COc1nsnc1N1CCOCC1 [Timolol Maleate],107,111,87,–,–,–
